Several values for one entry are separate records, joined by “and”; a condition that tells them apart may be missing. Identical values can stand only once.
Experiments:
[1] = system: Eschericia coli ATCC25922; test: Radial diffusion assay (RDA), E. coli; format: cell-based, Escherichia coli; design: Data (RDA antimicrobial activity, single replicates) / Mean (RDA antimicrobial activity): unit not given here; conditions: E. coli; for Data (RDA antimicrobial activity, single replicates): individual replicate; for Mean (RDA antimicrobial activity): mean of 3
Method in brief: (§1)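 Peptides (20-mers, crude, 5 mM water stock) applied at 6 μl per well to agarose underlay (0.03% TSB, 0.02% Tween 20) holding 4×10^6 bacterial or 1×10^5 fungal cfu from mid-log cultures washed in 10 mM Tris pH 7.4. After 3 h diffusion at 37 °C and nutrient overlay, clear zones read after 18–24 h (37 °C bacteria, 28 °C C. albicans).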

[2] = system: Staphylococcus aureus ATCC29213; test: Radial diffusion assay (RDA), S. aureus; format: cell-based; design: Data (RDA antimicrobial activity, single replicates) / Mean (RDA antimicrobial activity): unit not given here; conditions: S. aureus; for Data (RDA antimicrobial activity, single replicates): individual replicate; for Mean (RDA antimicrobial activity): mean of 3
Method in brief: as §1

[3] = system: Candida albicans ATCC90028; test: Radial diffusion assay (RDA), C. albicans; format: cell-based; design: unit not given here; conditions: Table 1c; for RDA Data (single replicates), C. albicans: individual values
Description: Peptides. Peptides were from Sigma-Genosys, generated by a peptide synthesis platform (PEPscreen®, Custom Peptide Libraries, SigmaGenosys). Yield was ˜1-6 mg, and peptide length 20 amino acids. MALDI-ToF Mass Spectrometry was perfomed on these peptides. Average Crude Purity of 20mers was ˜60%. Peptides were supplied lyophilized and in a 96-well tube rack. Prior to biological testing the PEPscreen peptides were diluted in dH2O (5 mM stock), and stored at −20 C. This stock solution was used for the subsequent experiments.
Eschericia coli ATCC25922, Staphylococcus aureus ATCC29213, and the fungal isolate Candida albicans ATCC90028 were obtained from the Department of Bacteriology, Lund University Hospital.
Radial diffusion assays (RDA) were performed essentially as described earlier (Lehrer, R. I., Rosenman, M., Harwig, S. S., Jackson, R. & Eisenhauer, P. (1991) Ultrasensitive assays for endogenous antimicrobial polypeptides, J Immunol Methods. 137, 167-73). Briefly, bacteria (E. coli, S. aureus) or fungi (C. albicans) were grown to midlogarithmic phase in 10 ml of full-strength (3% w/v) trypticase soy broth (TSB) (Becton-Dickinson, Cockeysville, Md.). The microorganisms were washed once with 10 mM Tris, pH 7.4. 4×10^6 bacterial cfu or 1×10^5 fungal cfu was added to 5 ml of the underlay agarose gel, consisting of 0.03% (w/v) TSB, 1% (w/v) low-electroendoosmosistype (Low-EEO) agarose (Sigma, St Louise Mo.) and a final concentration of 0.02% (v/v) Tween 20 (Sigma). The underlay was poured into a Ø 85 mm petri dish. After agarose solidified, 4 mm-diameter wells were punched and 6 μl of test sample was added to each well. Plates were incubated at 37° C. for 3 hours to allow diffusion of the peptides. The underlay gel was then covered with 5 ml of molten overlay (6% TSB and 1% Low-EEO agarose in dH2O). Antimicrobial activity of a peptide is visualized as a clear zone around each well after 18-24 hours of incubation at 37° C. for bacteria and 28° C. for Candida albicans. Other examples of peptides that were screened and found to show an increased effect against the above mentioned microorgansism are listed below. Some of the results are found in table 1c showing the effects against C. albicans, table 1d E. coli and table 1e S. aureus.

PKR-21: growth factor derived peptide, untagged parent of PKR21WWW; sequence not printed (PKRKKKGGKNGKNRRNRKKKN; listed as Homo sapiens)
Data (RDA antimicrobial activity, single replicates) ([1]; peptide 0.1 μM): 0
Mean (RDA antimicrobial activity) ([1]; peptide 0.1 μM): 0.00
Data (RDA antimicrobial activity, single replicates) ([1]; peptide 0.5 μM): 0.3 and 0.7 and 0.58
Mean (RDA antimicrobial activity) ([1]; peptide 0.5 μM): 0.53
Data (RDA antimicrobial activity, single replicates) ([1]; peptide 1 μM): 0.56 and 0.97 and 1.02
Mean (RDA antimicrobial activity) ([1]; peptide 1 μM): 0.85
Data (RDA antimicrobial activity, single replicates) ([1]; peptide 5 μM): 0.63 and 1.65 and 0.55
Mean (RDA antimicrobial activity) ([1]; peptide 5 μM): 0.94
Data (RDA antimicrobial activity, single replicates) ([1]; peptide 10 μM): 0.94 and 1.08 and 1.02
Mean (RDA antimicrobial activity) ([1]; peptide 10 μM): 1.01
Data (RDA antimicrobial activity, single replicates) ([1]; peptide 50 μM): 1.16 and 1.52 and 1.01
Mean (RDA antimicrobial activity) ([1]; peptide 50 μM): 1.23
Data (RDA antimicrobial activity, single replicates) ([1]; peptide 100 μM): 1.34 and 1.37 and 1.39
Mean (RDA antimicrobial activity) ([1]; peptide 100 μM): 1.37
Data (RDA antimicrobial activity, single replicates) ([2]; peptide 0.1 μM): 0
Mean (RDA antimicrobial activity) ([2]; peptide 0.1 μM): 0.00
Data (RDA antimicrobial activity, single replicates) ([2]; peptide 0.5 μM): 0
Mean (RDA antimicrobial activity) ([2]; peptide 0.5 μM): 0.00
Data (RDA antimicrobial activity, single replicates) ([2]; peptide 1 μM): 0
Mean (RDA antimicrobial activity) ([2]; peptide 1 μM): 0.00
Data (RDA antimicrobial activity, single replicates) ([2]; peptide 5 μM): 0
Mean (RDA antimicrobial activity) ([2]; peptide 5 μM): 0.00
Data (RDA antimicrobial activity, single replicates) ([2]; peptide 10 μM): 0.17 and 0.4 and 0.77
Mean (RDA antimicrobial activity) ([2]; peptide 10 μM): 0.45
Data (RDA antimicrobial activity, single replicates) ([2]; peptide 50 μM): 1.06 and 1.6 and 1.24
Mean (RDA antimicrobial activity) ([2]; peptide 50 μM): 1.30
Data (RDA antimicrobial activity, single replicates) ([2]; peptide 100 μM): 2.63 and 2.54 and 1.84
Mean (RDA antimicrobial activity) ([2]; peptide 100 μM): 2.34
RDA Mean, C. albicans ([3]; peptide 0.1 μM): 0.00
RDA Data (single replicates), C. albicans ([3]; peptide 0.1 μM): 0.00
RDA Mean, C. albicans ([3]; peptide 0.5 μM): 0.00
RDA Data (single replicates), C. albicans ([3]; peptide 0.5 μM): 0.00
RDA Mean, C. albicans ([3]; peptide 1 μM): 0.00
RDA Data (single replicates), C. albicans ([3]; peptide 1 μM): 0.00
RDA Mean, C. albicans ([3]; peptide 5 μM): 0.00
RDA Data (single replicates), C. albicans ([3]; peptide 5 μM): 0.00
RDA Mean, C. albicans ([3]; peptide 10 μM): 0.46
RDA Data (single replicates), C. albicans ([3]; peptide 10 μM): 0.42 and 0.39 and 0.58
RDA Mean, C. albicans ([3]; peptide 50 μM): 4.04
RDA Data (single replicates), C. albicans ([3]; peptide 50 μM): 4.66 and 3.95 and 3.51
RDA Mean, C. albicans ([3]; peptide 100 μM): 4.59
RDA Data (single replicates), C. albicans ([3]; peptide 100 μM): 4.65 and 4.56 and 4.55

PKRKKKGGKNGKNRRNRKKKNWWW [PKR-21-WWW]
Data (RDA antimicrobial activity, single replicates) ([1]; peptide 0.1 μM): 0
Mean (RDA antimicrobial activity) ([1]; peptide 0.1 μM): 0.00
Data (RDA antimicrobial activity, single replicates) ([1]; peptide 0.5 μM): 1.26 and 1.05 and 0.84
Mean (RDA antimicrobial activity) ([1]; peptide 0.5 μM): 1.05
Data (RDA antimicrobial activity, single replicates) ([1]; peptide 1 μM): 3.6 and 2.59 and 3.49
Mean (RDA antimicrobial activity) ([1]; peptide 1 μM): 3.23
Data (RDA antimicrobial activity, single replicates) ([1]; peptide 5 μM): 4.99 and 5.03 and 4.75
Mean (RDA antimicrobial activity) ([1]; peptide 5 μM): 4.92
Data (RDA antimicrobial activity, single replicates) ([1]; peptide 10 μM): 5.86 and 5.87 and 6.13
Mean (RDA antimicrobial activity) ([1]; peptide 10 μM): 5.95
Data (RDA antimicrobial activity, single replicates) ([1]; peptide 50 μM): 7.71 and 7.97 and 6.98
Mean (RDA antimicrobial activity) ([1]; peptide 50 μM): 7.55
Data (RDA antimicrobial activity, single replicates) ([1]; peptide 100 μM): 7.34 and 8.26 and 7.99
Mean (RDA antimicrobial activity) ([1]; peptide 100 μM): 7.86
Data (RDA antimicrobial activity, single replicates) ([2]; peptide 0.1 μM): 0
Mean (RDA antimicrobial activity) ([2]; peptide 0.1 μM): 0.00
Data (RDA antimicrobial activity, single replicates) ([2]; peptide 0.5 μM): 0
Mean (RDA antimicrobial activity) ([2]; peptide 0.5 μM): 0.00
Data (RDA antimicrobial activity, single replicates) ([2]; peptide 1 μM): 2.56 and 2.59 and 3.06
Mean (RDA antimicrobial activity) ([2]; peptide 1 μM): 2.74
Data (RDA antimicrobial activity, single replicates) ([2]; peptide 5 μM): 2.98 and 2.5 and 3.07
Mean (RDA antimicrobial activity) ([2]; peptide 5 μM): 2.85
Data (RDA antimicrobial activity, single replicates) ([2]; peptide 10 μM): 3.53 and 4.06 and 3.83
Mean (RDA antimicrobial activity) ([2]; peptide 10 μM): 3.81
Data (RDA antimicrobial activity, single replicates) ([2]; peptide 50 μM): 4.21 and 5.14 and 4.23
Mean (RDA antimicrobial activity) ([2]; peptide 50 μM): 4.53
Data (RDA antimicrobial activity, single replicates) ([2]; peptide 100 μM): 4.77 and 5.67 and 5.02
Mean (RDA antimicrobial activity) ([2]; peptide 100 μM): 5.15
RDA Mean, C. albicans ([3]; peptide 0.1 μM): 0.00
RDA Data (single replicates), C. albicans ([3]; peptide 0.1 μM): 0.00
RDA Mean, C. albicans ([3]; peptide 0.5 μM): 0.00
RDA Data (single replicates), C. albicans ([3]; peptide 0.5 μM): 0.00
RDA Mean, C. albicans ([3]; peptide 1 μM): 0.49
RDA Data (single replicates), C. albicans ([3]; peptide 1 μM): 0.55 and 0.42 and 0.51
RDA Mean, C. albicans ([3]; peptide 5 μM): 1.14
RDA Data (single replicates), C. albicans ([3]; peptide 5 μM): 1.26 and 1.06 and 1.10
RDA Mean, C. albicans ([3]; peptide 10 μM): 3.11
RDA Data (single replicates), C. albicans ([3]; peptide 10 μM): 3.54 and 2.82 and 2.97
RDA Mean, C. albicans ([3]; peptide 50 μM): 5.47
RDA Data (single replicates), C. albicans ([3]; peptide 50 μM): 5.84 and 5.44 and 5.13
RDA Mean, C. albicans ([3]; peptide 100 μM): 6.97
RDA Data (single replicates), C. albicans ([3]; peptide 100 μM): 6.69 and 7.04 and 7.19

— patent US8227406B2, “Antimicrobial peptides” (Dermagen AB, priority 2006, dated 2012)
